Experimental data from PubChem BioAssay (NCI).
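Five concentrations, 48 hours, 96-well plates. GI50 = concentration required for 50% inhibition of growth. TGI: total growth inhibition.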

Tests used:
Experiment in all cases: DTP human tumour cell line panel, 48 h
SNB-75 CNS = system: SNB-75 CNS
OVCAR-8 ovarian = system: OVCAR-8 ovarian
A498 renal = system: A498 renal
MDA-MB-435 = system: MDA-MB-435
UACC-257 melanoma = system: UACC-257 melanoma
SF-295 CNS = system: SF-295 CNS
OVCAR-4 ovarian = system: OVCAR-4 ovarian
EKVX NSCLC = system: EKVX NSCLC
ACHN renal = system: ACHN renal
SK-MEL-2 melanoma = system: SK-MEL-2 melanoma
SF-539 CNS = system: SF-539 CNS
RPMI-8226 leukemia = system: RPMI-8226 leukemia
SF-268 CNS = system: SF-268 CNS
HOP-62 NSCLC = system: HOP-62 NSCLC
M14 melanoma = system: M14 melanoma
PC-3 prostate = system: PC-3 prostate
SW-620 colon = system: SW-620 colon
KM12 colon = system: KM12 colon
DU-145 prostate = system: DU-145 prostate
NCI-H460 lung = system: NCI-H460 lung
SK-MEL-5 melanoma = system: SK-MEL-5 melanoma
UACC-62 melanoma = system: UACC-62 melanoma
K-562 leukemia = system: K-562 leukemia
SNB-19 CNS = system: SNB-19 CNS
NCI/ADR-RES ovarian = system: NCI/ADR-RES ovarian
HCT-15 colon = system: HCT-15 colon
SK-OV-3 ovarian = system: SK-OV-3 ovarian
A549 NSCLC = system: A549 NSCLC
TK-10 renal = system: TK-10 renal
LOX IMVI melanoma = system: LOX IMVI melanoma
NCI-H23 lung = system: NCI-H23 lung
SR leukemia = system: SR leukemia
T-47D breast = system: T-47D breast
MDA-N = system: MDA-N
COLO 205 colon = system: COLO 205 colon
MOLT-4 leukemia = system: MOLT-4 leukemia
SN12C renal = system: SN12C renal
OVCAR-5 ovarian = system: OVCAR-5 ovarian
CCRF-CEM leukemia = system: CCRF-CEM leukemia
UO-31 renal = system: UO-31 renal
HCC-2998 colon = system: HCC-2998 colon
SK-MEL-28 melanoma = system: SK-MEL-28 melanoma
MDA-MB-231 breast = system: MDA-MB-231 breast
HT29 colon = system: HT29 colon
HCT-116 colon = system: HCT-116 colon
HL-60(TB) leukemia = system: HL-60(TB) leukemia
U251 CNS = system: U251 CNS
MCF7 breast = system: MCF7 breast
NCI-H522 lung = system: NCI-H522 lung
MALME-3M melanoma = system: MALME-3M melanoma

CC(=O)O[C@H]1C(=O)[C@@]2(C)[C@H]([C@H](OC(=O)c3ccccc3)[C@]3(O)C[C@H](OC(=O)[C@H](O)[C@@H](NC(=O)c4ccoc4)c4ccccc4)C(C)=C1C3(C)C)[C@]1(OC(C)=O)CO[C@@H]1C[C@@H]2O
GI50 (SNB-75 CNS): 0.0531 µM
TGI (OVCAR-8 ovarian): 47.8 µM
TGI (A498 renal): 0.698 µM
TGI (MDA-MB-435): 0.039 µM
TGI (UACC-257 melanoma): 68.5 µM
TGI (SF-295 CNS): 22.9 µM
TGI (OVCAR-4 ovarian): > 100 µM
GI50 (EKVX NSCLC): 17.2 µM
TGI (EKVX NSCLC): > 100 µM
GI50 (ACHN renal): 0.0584 µM
TGI (ACHN renal): > 100 µM
GI50 (SK-MEL-2 melanoma): 27.8 µM
TGI (SF-539 CNS): 0.257 µM
TGI (RPMI-8226 leukemia): > 100 µM
TGI (SF-268 CNS): > 100 µM
TGI (HOP-62 NSCLC): 16.4 µM
TGI (M14 melanoma): 0.661 µM
TGI (PC-3 prostate): > 100 µM
TGI (SW-620 colon): > 100 µM
TGI (KM12 colon): 14.1 µM
TGI (DU-145 prostate): > 100 µM
TGI (NCI-H460 lung): 28 µM
TGI (SK-MEL-5 melanoma): 0.399 µM
TGI (UACC-62 melanoma): 31.9 µM
GI50 (K-562 leukemia): 0.0337 µM
TGI (K-562 leukemia): > 100 µM
TGI (SNB-19 CNS): > 100 µM
TGI (NCI/ADR-RES ovarian): > 100 µM
GI50 (HCT-15 colon): 0.907 µM
TGI (HCT-15 colon): > 100 µM
TGI (SK-OV-3 ovarian): 32.7 µM
TGI (A549 NSCLC): > 100 µM
GI50 (TK-10 renal): 0.164 µM
TGI (TK-10 renal): 40.4 µM
TGI (LOX IMVI melanoma): > 100 µM
TGI (NCI-H23 lung): 31.2 µM
TGI (SR leukemia): 47 µM
GI50 (T-47D breast): 26.3 µM
TGI (T-47D breast): > 100 µM
TGI (MDA-N): 0.0166 µM
TGI (COLO 205 colon): 16.9 µM
GI50 (MOLT-4 leukemia): 0.042 µM
TGI (MOLT-4 leukemia): > 100 µM
TGI (SN12C renal): > 100 µM
TGI (OVCAR-5 ovarian): 0.091 µM
GI50 (CCRF-CEM leukemia): 0.0334 µM
TGI (CCRF-CEM leukemia): > 100 µM
TGI (UO-31 renal): > 100 µM

CCOC(=O)C(NC(=O)CC)(C(F)(F)F)P(=O)(OCC)OCC (stereo not given)
TGI (HCC-2998 colon): > 100 µM
TGI (SNB-75 CNS): > 100 µM
TGI (SK-MEL-28 melanoma): > 100 µM
TGI (A498 renal): > 100 µM
TGI (MDA-MB-435): > 100 µM
TGI (MDA-MB-231 breast): > 100 µM
TGI (HT29 colon): > 100 µM
TGI (HCT-116 colon): > 100 µM
TGI (EKVX NSCLC): > 100 µM
TGI (ACHN renal): > 100 µM
TGI (HL-60(TB) leukemia): > 100 µM
TGI (SF-539 CNS): > 100 µM
TGI (RPMI-8226 leukemia): > 100 µM
TGI (SF-268 CNS): > 100 µM
TGI (HOP-62 NSCLC): > 100 µM
TGI (M14 melanoma): > 100 µM
TGI (U251 CNS): > 100 µM
TGI (DU-145 prostate): > 100 µM
TGI (UACC-62 melanoma): > 100 µM
TGI (K-562 leukemia): > 100 µM
TGI (MCF7 breast): > 100 µM
TGI (HCT-15 colon): > 100 µM
TGI (SK-OV-3 ovarian): > 100 µM
TGI (SR leukemia): > 100 µM
TGI (T-47D breast): > 100 µM
TGI (MDA-N): > 100 µM
TGI (NCI-H522 lung): > 100 µM
TGI (MALME-3M melanoma): > 100 µM
TGI (MOLT-4 leukemia): > 100 µM
TGI (SN12C renal): > 100 µM
TGI (CCRF-CEM leukemia): > 100 µM
TGI (UO-31 renal): > 100 µM
